Consider 3 molecules from patent US9585905B2, “Sweet taste receptor antagonist compositions” (Four LLC, priority 2014, dated 2017).

The test system of experiment [1] is sweet taste (10% sucrose reference). The experiment in a line: Duration of sweet taste blockade: sensory panelist rates sweetness intensity (SI) of 10% sucrose after 5 min oral exposure to sample. The class given is in vivo, human. Conditions: for SI: 0-10 scale, 10% sucrose=10; for sweet taste inhibition following exposure of the oral cavity (in words): in vivo. The method, then:
A standard method was developed to quantify the duration of sweet taste blockade for the gymnemic acid compositions of the present invention. […] In all cases, sucrose was used as the sweetener in sweet taste blockade quantification. Thus, 10%, 8%, 6%, 4%, and 2% (w/v) sucrose solutions in reverse osmosis (RO) purified water were freshly prepared and, at the beginning of each experiment, 15 mL samples of each sucrose solution were used to calibrate sensory panelist on sweetness intensity. The sensory panelist is described as a person with training in sensory evaluation with at least 1 year of experience as a sensory panelist in the area of gustatation, and preferably with training in descriptive analysis. Standard scaling methodology was used for quantification of sweetness intensity (SI) on the following scale: • 10% sucrose=10, • 8% sucrose=8, • 6% sucrose=6, • 4% sucrose=4, • 2% sucrose=2, and • 0% sucrose=0.
Following panelist calibration with the sucrose reference standards, the panelist rinsed their mouth with 15 mL RO water and the sweetness inhibitor sample in 15 mL RO water was then immediately taken into the mouth and gently agitated for 5 minutes. The sweet taste inhibitor sample was then expectorated and a 15 mL sample of the 10% sucrose reference solution was then immediately re-tasted, perceived SI within 15 seconds was rated on the 0-10 scale, the sample expectorated, and the mouth rinsed vigorously with 15 mL RO water. The 10% sucrose sample was then re-tasted every 15 min and SI rated. The panelist was asked to make comments on the observations of non-sweet taste attributes at each sucrose reference tasting interval.

The subject of experiment [2] is bitter taste of bitter compounds (quinine, denatonium benzoate, tetralone, sucrose octaacetate, pseudoephedrine, dextromethorphan). Conditions: cited from earlier work.
[3] abbreviates: 10% sucrose re-tasted at 15 min.
Setting [4] is: 10% sucrose re-tasted at 30 min.
Where [5] appears, read: 10% sucrose re-tasted at 45 min.
[6] abbreviates: 10% sucrose re-tasted at 60 min.
The mark [7] stands for this setting: 10% sucrose re-tasted at 75 min.
Where [8] appears, read: 10% sucrose re-tasted at 90 min.
Where [9] appears, read: 10% sucrose re-tasted at 105 min.
Setting [10] is: 10% sucrose re-tasted at 120 min.
The mark [11] stands for this setting: 10% sucrose tasted at 0 min after expectoration of sample (in 15 mL RO water, held 5 min).

“Also recorded” adds a separate entry of the source. Read-outs that look alike come from different tables or passages of the source.

`COc1ccc(OC(C)C(=O)O)cc1` (stereo not drawn) [Lactisole]: the SI in experiment [1] (setting [3]), in experiment [1] (setting [4]), in experiment [1] (setting [5]), in experiment [1] (setting [6]), in experiment [1] (setting [7]) and in experiment [1] (setting [8]) was 10 throughout. Moreover, the SI in experiment [1] (setting [9]) is listed as 10; in experiment [1] (setting [10]), 10; in experiment [1] (setting [11]) it was 12. In experiment [1], the “sweet taste inhibition following exposure of the oral cavity (in words)” value is given as “no sweet taste inhibition was observed; also recorded: caused no sweetness inhibition following expectoration”.
Regarding `O=S(=O)([O-])[O-].[Zn+2]` [zinc sulfate], the bitterness inhibitory activity result in experiment [2] (against denatonium benzoate) is on record as “effective bitterness inhibitor”; in experiment [2] (against dextromethorphan), “no significant bitterness inhibitory activity”; in experiment [2] (against pseudoephedrine), “no significant bitterness inhibitory activity”; in experiment [2] (against quinine), “effective bitterness inhibitor”; in experiment [2] (against sucrose octaacetate), “no significant bitterness inhibitory activity”; in experiment [2] (against tetralone), “effective bitterness inhibitor”. Besides, the “inhibition of the bitterness of quinine hydrochloride (QHCl)” value in experiment [2] (up to) is “up to 70%”.

B1: Miraculin (protein, UniProt P13087 30-220, looked up)
Miraculin: DSAPNPVLDIDGEKLRTGTNYYIVPVLRDHGGGLTVSATTPNGTFVCPPRVVQTRKEVDHDRPLAFFPENPKEDVVRVSTDLNINFSAFMPCRWTSSTVWRLDKYDESTGQYFVTIGGVKGNPGPETISSWFKIEEFCGSGFYKLVFCPTVCGSCKVKCGDVGIYIDQKGRRRLALSDKPFAFEFNKTVYF
In the case of B1, the SI in experiment [1] (setting [3]), in experiment [1] (setting [4]), in experiment [1] (setting [5]), in experiment [1] (setting [6]), in experiment [1] (setting [7]) and in experiment [1] (setting [8]) was 10 in each case. In addition, the SI in experiment [1] (setting [9]), in experiment [1] (setting [10]) and in experiment [1] (setting [11]) was 10 throughout. The “sweet taste inhibition following exposure of the oral cavity (in words)” value in experiment [1] was “No sweet taste inhibitory effect was observed”.
